# Test results reported in US4404209A, “Analgesic mixture of nalbuphine and sulindac” (E. I. Du Pont de Nemours and Company, priority 1982, dated 1983).
# Where two headings read alike, the source gives them in different places.
# Tested on: phenyl-p-benzoquinone induced writhing in mice
# Conditions: oral; for % mice blocked: 40 min
# Procedure: The phenyl-p-benzoquinone induced writhing test in mice [H. Blumberg et al., Proc. Soc. […] The method simply consists of reading the % ED50 DOSE for each dose ratio on the best fit regression analysis curve from the mouse isobologram, multiplying each component by its effective species dose, and then forming the ratio of the amount of nalbuphine to sulindac. […] [E. W. Pelikan, The Pharmacologist, 1, 73 (1959).]
# The mixture is sonicated at 150 watts for 1-2 minutes with an ultrasound system, then shaken for two hours at 280 oscillations/minute with 15-20 gm of glass beads. The resultant suspension contains 16 mg/ml of sulindac; all dosing suspensions are prepared by dilution of the stock suspension with the Methocel®/Tween 80® vehicle; the vehicle control is Methocel®/Tween 80®. All suspensions are prepared fresh daily.
# Each mouse is used only once, then discarded.
# In order to study the interaction between nalbuphine and sulindac, 5 precise dosage ratios of nalbuphine hydrochloride and sulindac are selected.
Compound,"% mice blocked (nalbuphine HCl 5.45 mg/kg, sulindac 0)","% mice blocked (nalbuphine HCl 10.9 mg/kg, sulindac 0)","% mice blocked (nalbuphine HCl 21.8 mg/kg, sulindac 0)","% mice blocked (nalbuphine HCl 43.6 mg/kg, sulindac 0)","% mice blocked (nalbuphine HCl 87.2 mg/kg, sulindac 0)","ED50 at 40 min, nalbuphine HCl (95% confidence limits) (mouse, nalbuphine HCl dose, alone or as component of the fixed-ratio combination)","% mice blocked (nalbuphine HCl 0, sulindac 4.75 mg/kg)","% mice blocked (nalbuphine HCl 0, sulindac 9.5 mg/kg)","% mice blocked (nalbuphine HCl 0, sulindac 19.0 mg/kg)","% mice blocked (nalbuphine HCl 0, sulindac 38.0 mg/kg)","ED50 at 40 min, sulindac (95% confidence limits) (mouse, sulindac dose, alone or as component of the fixed-ratio combination)"
"Oc1ccc2c3c1O[C@H]1[C@@H](O)CC[C@@]4(O)[C@@H](C2)N(CC2CCC2)CC[C@]314 [Nalbuphine, (-)-17-(cyclobutylmethyl)-4,5α-epoxymorphinan-3,6α,14-triol]",16.7%,40.0%,36.7%,63.3%,90.0%,30.8 mg/kg,,,,,
"CC1=C(CC(=O)O)c2cc(F)ccc2/C1=C\c1ccc([S+](C)[O-])cc1 (centres unmarked) [Sulindac, (Z)-5-fluoro-2-methyl-1-{[4-(methylsulfinyl)phenyl]methylene}-1H-indene-3-acetic acid]",,,,,,,20.0%,20.0%,46.7%,96.7%,21.2 mg/kg
